Reference: ChEMBL document CHEMBL1795233, “The geranyl-modified tryptophan residue is crucial for ComXRO-E-2 pheromone biological activity” (Bioorg Med Chem Lett, 2011)
*1 amine or outer side, *2 acyl side, *3 side chain or, on linkers, in order; H or OH if unused. Where a SMILES comes first, the peptide text is derived from it. [ ]: non-standard residue; d: D form. X2 = CC(C)=CCC/C(C)=C/CC/C(C)=C/C[C@]12C[C@@H](C(=O)[*:2])N([*:1])[C@H]1Nc1ccccc12; X4 = CC(C)=CCC/C(C)=C/C[C@]12C[C@@H](C(=O)[*:2])N([*:1])[C@H]1Nc1ccccc12; X1 = C/C(=C\C[C@]12C[C@@H](C(=O)[*:2])N([*:1])[C@H]1Nc1ccccc12)CCCC(C)C; X3 = CC(C)=CC[C@]12C[C@@H](C(=O)[*:2])N([*:1])[C@H]1Nc1ccccc12

Assays:
Bacillus subtilis [1] = test: Effect on quorum sensing-mediated genetic competence in Bacillus subtilis expressing srfA-lacZ fusion assessed as concentration required to show same activity at EC25 of ComXRO-E-2 pheromone after 5 hrs by beta-galactosidase assay
[2] = Effect on quorum sensing-mediated genetic competence in Bacillus subtilis expressing srfA-lacZ fusion assessed as concentration required to show same activity at EC50 of ComXRO-E-2 pheromone after 5 hrs by beta-galactosidase assay
Bacillus subtilis [3] = test: Effect on quorum sensing-mediated genetic competence in Bacillus subtilis expressing srfA-lacZ fusion assessed as maximum activity after 5 hrs by beta-galactosidase assay relative to ComXRO-E-2 pheromone

| Compound | EC25 (Bacillus subtilis [1]) | EC50 [2] | Emax (Bacillus subtilis [3]) |
| --- | --- | --- | --- |
| CC(C)=CCC/C(C)=C/C[C@]12C[C@@H](C(=O)N[C@@H](C)C(=O)O)N(C(=O)[C@@H](N)CC(N)=O)[C@H]1Nc1ccccc12 | > 300 nM | > 300 nM | 5% |
| CC(C)=CCC/C(C)=C/C[C@]12C[C@@H](C(=O)N[C@@H](C)C(=O)O)N(C(=O)C(N)Cc3ccccc3)[C@H]1Nc1ccccc12 (single isomer, unassigned) | 3 nM | 60 nM | 70% |
| CC[C@H](C)[C@H](NC(=O)CN)C(=O)N[C@@H](Cc1ccccc1)C(=O)N1[C@H]2Nc3ccccc3[C@@]2(C/C=C(\C)CC/C=C(\C)CCC=C(C)C)C[C@H]1C(=O)N[C@@H](CCC(=O)O)C(=O)N[C@@H](CCC(N)=O)C(=O)O (H-GIF[X2]EQ-OH) | 20 nM | > 300 nM | 35% |
| CC[C@H](C)[C@H](N)C(=O)N1[C@H]2Nc3ccccc3[C@@]2(C/C=C(\C)CCC=C(C)C)C[C@H]1C(=O)N[C@@H](C)C(=O)O | 20 nM | > 300 nM | 35% |
| CC(C)=CCC/C(C)=C/C[C@]12C[C@@H](C(=O)N[C@@H](C)C(=O)O)N(C(=O)[C@@H](N)Cc3ccc(O)cc3)[C@H]1Nc1ccccc12 | 100 nM | > 300 nM | 25% |
| CC(C)=CCC/C(C)=C/C[C@]12C[C@@H](C(=O)N[C@@H](CCC(=O)O)C(=O)O)N(C(=O)[C@H](C)N)[C@H]1Nc1ccccc12 | > 300 nM | > 300 nM | 20% |
| CC[C@H](C)[C@H](NC(=O)CN)C(=O)N[C@@H](Cc1ccccc1)C(=O)N1[C@H]2Nc3ccccc3[C@@]2(CCC(C)CCCC(C)C)C[C@H]1C(=O)N[C@@H](CCC(=O)O)C(=O)N[C@@H](CCC(N)=O)C(=O)O (mixture of isomers) | 200 nM | > 300 nM | 40% |
| CC(C)=CCC/C(C)=C/C[C@]12C[C@@H](C(=O)N[C@@H](CCC(=O)O)C(=O)O)N(C(=O)C(N)Cc3ccccc3)[C@H]1Nc1ccccc12 (single isomer, unassigned) | 8 nM | 20 nM | 60% |
| CC(C)=CCC/C(C)=C/C[C@]12C[C@@H](C(=O)NCC(=O)O)N(C(=O)C(N)Cc3ccccc3)[C@H]1Nc1ccccc12 (single isomer, unassigned) | 200 nM | > 300 nM | 40% |
| CC(C)=CCC/C(C)=C/C[C@]12C[C@@H](C(=O)N[C@@H](C)C(=O)O)N(C(=O)[C@H](C)N)[C@H]1Nc1ccccc12 | > 300 nM | > 300 nM | 15% |
| CC[C@H](C)[C@H](NC(=O)CN)C(=O)N[C@@H](Cc1ccccc1)C(=O)N1[C@H]2Nc3ccccc3[C@@]2(C/C=C(\C)CCC=C(C)C)C[C@H]1C(=O)N[C@@H](CCC(=O)O)C(=O)N[C@@H](CCC(N)=O)C(=O)O (H-GIF[X4]EQ-OH) | 0.3 nM | 1 nM | – |
| CC(C)=CCC/C(C)=C/C[C@]12C[C@H]3C(=O)N[C@@H](Cc4ccccc4)C(=O)N3[C@H]1Nc1ccccc12 | > 300 nM | > 300 nM | 5% |
| CC[C@H](C)[C@H](NC(=O)CN)C(=O)N[C@@H](Cc1ccccc1)C(=O)N1[C@H]2Nc3ccccc3[C@@]2(CC=C(C)C)C[C@H]1C(=O)N[C@@H](CCC(=O)O)C(=O)N[C@@H](CCC(N)=O)C(=O)O (H-GIF[X3]EQ-OH) | > 300 nM | > 300 nM | 0% |
| CC(C)=CCC/C(C)=C/C[C@]12C[C@@H](C(=O)N[C@@H](C)C(=O)O)N(C(=O)[C@@H]3CCCN3)[C@H]1Nc1ccccc12 | > 300 nM | > 300 nM | 5% |
| CC[C@H](C)[C@H](NC(=O)CN)C(=O)N[C@@H](Cc1ccccc1)C(=O)N1[C@H]2Nc3ccccc3[C@@]2(C/C=C(\C)CCCC(C)C)C[C@H]1C(=O)N[C@@H](CCC(=O)O)C(=O)N[C@@H](CCC(N)=O)C(=O)O (H-GIF[X1]EQ-OH) | 2 nM | 20 nM | 75% |
| CC(C)=CCC/C(C)=C/C[C@]12C[C@@H](C(=O)N[C@@H](C)C(=O)O)N(C(=O)[C@@H](N)Cc3cc4ccccc4[nH]3)[C@H]1Nc1ccccc12 | > 300 nM | > 300 nM | 15% |
| CC(C)=CCC/C(C)=C/C[C@]12C[C@@H](C(N)=O)N(C(=O)c3ccccc3)[C@H]1Nc1ccccc12 | > 300 nM | > 300 nM | 0% |
| CC(C)=CCC/C(C)=C/C[C@]12C[C@@H](C(N)=O)N(C(=O)[C@@H](N)Cc3ccccc3)[C@H]1Nc1ccccc12 | 50 nM | > 300 nM | 35% |
| COC(=O)[C@@H]1C[C@]2(C/C=C(\C)CCC=C(C)C)c3ccccc3N[C@@H]2N1C(=O)[C@H](Cc1ccccc1)NC(C)=O | > 300 nM | > 300 nM | 10% |
| CC(C)=CCC/C(C)=C/C[C@]12C[C@@H](C(=O)N[C@@H](C)C(=O)O)N(C(=O)[C@@H](N)CC(C)C)[C@H]1Nc1ccccc12 | > 300 nM | > 300 nM | 20% |
